# In article PMC5811991 (Biochemistry, 2008):
# Biological target: GDP-perosamine synthase (Caulobacter vibrioides, UniProt Q9A9H3)
# Assay: HPLC assay of substrate decrease
# Type: biochemical
# Details: substrate inhibition, competitive versus glutamate (ping-pong, Eq. 1); 100 μM PLP, 20 mM HEPES pH 7.5, 110 mM NaCl, 10 mM MgCl2, room temperature
# Chain of GDP-perosamine synthase (Q9A9H3 whole entry): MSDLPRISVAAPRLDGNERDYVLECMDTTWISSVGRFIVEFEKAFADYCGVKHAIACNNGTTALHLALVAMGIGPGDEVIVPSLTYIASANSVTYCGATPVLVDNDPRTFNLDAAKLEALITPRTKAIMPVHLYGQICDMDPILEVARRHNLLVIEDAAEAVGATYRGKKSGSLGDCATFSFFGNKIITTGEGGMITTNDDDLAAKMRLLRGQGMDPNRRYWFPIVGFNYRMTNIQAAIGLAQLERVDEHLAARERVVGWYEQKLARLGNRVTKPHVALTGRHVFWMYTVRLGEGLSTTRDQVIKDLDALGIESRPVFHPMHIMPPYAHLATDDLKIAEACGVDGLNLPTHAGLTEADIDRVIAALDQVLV
structure (smiles),measurement,value
C[C@H]1O[C@H](OP(=O)(O)OP(=O)(O)OC[C@H]2O[C@@H](n3cnc4c(=O)[nH]c(N)nc43)[C@H](O)[C@@H]2O)[C@@H](O)[C@@H](O)C1=O [GDP-4-keto-6-deoxymannose],Ki sugar,0.089 ± 0.034 mM
